The source of these data is patent US20230017532A1 (Hoffmann-La Roche Inc., priority 2018, published 2023).

Structures can show the parent of a compound that is named as a salt.

One may read the IC90 as the concentration needed for an effect of 90%.

The first experiment deals with Acinetobacter baumannii ATCC17978. Description: Antimicrobial susceptibility testing: 90% growth inhibitory concentration (IC90) determination, Iso-Sensitest broth, OD 600 nm. It counts as cell-based. Particulars: 90% growth inhibitory concentration, Acinetobacter baumannii ATCC17978, Iso-Sensitest broth, OD 600 nm over 16 h; read-out: ATCC 17978 IC90. The procedure: Antimicrobial Susceptibility Testing:
90% Growth Inhibitory Concentration (IC90) Determination
The in vitro antimicrobial activity of the compounds was determined according to the following procedure:
The assay used a 10-points Iso-Sensitest broth medium to measure quantitatively the in vitro activity of the compounds against Acinetobacter baumannii ATCC17978 and Acinetobacter baumannii ATCC17961.
Stock compounds in DMSO were serially twofold diluted (e.g. range from 50 to 0.097 μM final concentration) in 384 wells microtiter plates and inoculated with 49 μl the bacterial suspension in Iso-Sensitest medium to have a final cell concentration of ˜5×10^(5) CFU/ml in a final volume/well of 50 ul/well. Microtiter plates were incubated at 35±2° C.
Bacterial cell growth was determined with the measurement of optical density at λ=600 nm each 20 minutes over a time course of 16 h. Growth inhibition was calculated during the logarithmic growth of the bacterial cells with determination of the concentration inhibiting 50% (IC50) and 90% (IC90) of the growth.
Table 1 provides the 90% growth inhibitory concentrations (IC90) in micromoles per liter of the compounds of present invention obtained against the strain Acinetobacter baumannii ATCC17978 and Acinetobacter baumannii ATCC17961.
On to `CCc1cc(Nc2nccn3c(-c4ccc(OC)c(F)c4F)cnc23)ccc1C(=O)NCCNCCN` [Example 64, N-(2-((2-Aminoethyl)amino)ethyl)-4-((3-(2,3-difluoro-4-methoxyphenyl)imidazo[1,2-a]pyrazin-8-yl)amino)-2-ethylbenzamide], for which the IC90 came to 110 nM. Same read-out and setting: for `COc1ccc(-c2cnc3c(Nc4ccc(C(=O)NCCOCCN)c(C)c4)nccn23)cc1` [Example 77] the value was 230 nM. On the same count and under the same terms, for `CCc1cc(Nc2nccn3c(-c4ccc(OCC#N)c(F)c4F)cnc23)ccc1C(=O)NCCOCCN` [Example 85, N-[2-(2-aminoethoxy)ethyl]-4-[[3-[4-(cyano-methoxy)-2,3-difluorophenyl]imidazo[1,2-a]pyrazin-8-yl]amino]-2-ethyl-benzamide;2,2,2-trifluoroacetic acid] the value was 55 nM; for `CCc1cc(Nc2nccn3c(-c4ccc(Cl)c(F)c4F)cnc23)ccc1C(=O)NCCOCCN` [Example 87, N-[2-(2-aminoethoxy)ethyl]-4-[[3-(4-chloro-2,3-difluoro-phenyl)imidazo [1,2-a]pyrazin-8-yl]amino]-2-ethylbenzamide], 180 nM.

The same experiment, now with this note: Acinetobacter baumannii, ATCC17978, 16 h, 90% growth inhibitory concentration, Acinetobacter baumannii ATCC17978, Iso-Sensitest broth, OD 600 nm over 16 h; read-out: ATCC 17978 IC90.
As for `COc1ccc(-c2cnc3c(Nc4cc(F)c(C(=O)NCCOCCN)c(F)c4)nccn23)c(F)c1F` [Example 59, N-(2-(2-aminoethoxy)ethyl)-4-((3-(2,3-difluoro-4-methoxy-phenyl)imidazo[1,2-a]pyrazin-8-yl)amino)-2,6-difluoro-benzamide], the IC90 was 130 nM. With `C#CCOc1ccc(-c2cnc3c(Nc4ccc(C(=O)NCCOCCN)c(CC)c4)nccn23)c(F)c1F` [Example 69, N-(2-(2-aminoethoxy)ethyl)-4-((3-(2,3-difluoro-4-(prop-2-yn-1-yloxy)phenyl)imidazo[1,2-a]pyrazin-8-yl)amino)-2-ethylbenzamide], the IC90 is 46 nM. The same measure, in the same setting: for `C#CCOc1ccc(-c2cnc3c(Nc4ccc(C(=O)NCCCNCCO)c(CC)c4)nccn23)c(F)c1F` [Example 73, 4-[[3-(2,3-difluoro-4-prop-2-ynoxy-phenyl)imidazo[1,2-a]pyrazin-8-yl]amino]-2-ethyl-N-[3-(2-hydroxyethylamino)propyl]benzamide] the value was 170 nM. For `COc1ccc(-c2cnc3c(Nc4ccc(C(=O)NCCOCCN)c(CCF)c4)nccn23)c(F)c1F` [Example 74, N-[2-(2-aminoethoxy)ethyl]-4-[[3-(2,3-difluoro-4-methoxy-phenyl)imidazo[1,2-a]pyrazin-8-yl]amino]-2-(2-fluoroethyl)benzamide], the IC90 was 46 nM. The same measure, in the same setting: for `COc1ccc(-c2cnc3c(Nc4ccc(C(=O)NCCOCCN5CCOC5=O)c(C)c4)nccn23)cc1` [Example 76, 4-[[3-(4-methoxyphenyl)imidazo[1,2-a]pyrazin-8-yl]amino]-2-methyl-N-[2-[2-(2-oxo-1,3-oxazolidin-3-yl)ethoxy]ethyl] benzamide] the value was 720 nM; for `Cc1cc(Nc2nccn3c(-c4ccc(OC(F)F)cc4)cnc23)ccc1C(=O)NCCOCCNC(=O)CCC(=O)O` [Example 78, 4-[2-[2-[[4-[[3-[4-(difluoromethoxy)phenyl]imidazo [1,2-a]pyrazin-8-yl]amino]-2-methylbenzoyl]amino]ethoxy]ethylamino]-4-oxobutanoic acid], 1200 nM.

With `Cc1cc(Nc2nccn3c(-c4ccc(OC(F)F)cc4)cnc23)ccc1C(=O)NCCOCCN=C(N(C)C)N(C)C` [Example 79, N-[2-[2-[bis (dimethylamino)methylidene-amino]ethoxy]ethyl]-4-[[3-[4-(difluoro-methoxy)phenyl]imidazo [1,2-a]pyrazin-8-yl]amino]-2-methylbenzamide], the 90% effect concentration (IC90) turned out to be 1400 nM.

Regarding `Cc1cc(Nc2nccn3c(-c4ccc(Cl)c(F)c4F)cnc23)ccc1C(=O)NCCNCCO` [Example 80, 4-[[3-(4-chloro-2,3-difluorophenyl)imidazo[1,2-a]pyrazin-8-yl]amino]-N-[2-(2-hydroxy-ethylamino)ethyl]-2-methyl-benzamide; hydrochloride], the IC90 turned out to be 5100 nM.

Turning to `Cc1cc(Nc2nccn3c(-c4ccc(OC(F)F)cc4)cnc23)ccc1C(=O)NCCOCCN1CCC(O)CC1` [Example 81, 4-[[3-[4-(difluoromethoxy)phenyl]imidazo [1,2-a]pyrazin-8-yl]amino]-N-[2-[2-(4-hydroxy-piperidin-1-yl)ethoxy]ethyl]-2-methylbenzamide], the concentration for an effect of 90% (IC90) was determined as 340 nM. Still for that read-out and setting: for `Cc1cc(Nc2nccn3c(-c4ccc(OC(F)F)cc4)cnc23)ccc1C(=O)NCCOCCN1CC[C@H]2COC[C@@H]2C1` [Example 82, N-[2-[2-[(3aS, 7aR)-3,3a,4,6,7,7a-hexahydro-1H-furo[3,4-c]pyridin-5-yl]ethoxy]ethyl]-4-[[3-[4-(difluoromethoxy)phenyl]imidazo [1,2-a]pyrazin-8-yl]amino]-2-methylbenzamide] the value was 470 nM. Take `Cc1cc(Nc2nccn3c(-c4ccc(OC(F)F)cc4)cnc23)ccc1C(=O)NCCOCCN1CCC2(COC2)C1` [Example 83, 4-[[3-[4-(difluoromethoxy)phenyl]imidazo [1,2-a]pyrazin-8-yl]amino]-2-methyl-N-[2-[2-(2-oxa-7-azaspiro [3.4]octan-7-yl)ethoxy]ethyl]benzamide]: the IC90 amounted to 640 nM. Consider `CCc1cc(Nc2nccn3c(-c4ccc(OC)c(F)c4F)cnc23)ccc1C(=O)NCCOCCN` [Example 86], for which the IC90 is 50 nM.

For the compound `Cc1cc(Nc2nccn3c(-c4ccc(Cl)c(F)c4F)cnc23)ccc1C(=O)NCCOCCN` [Example 88, N-[2-(2-aminoethoxy)ethyl]-4-[[3-(4-chloro-2,3-difluorophenyl)imidazo[1,2-a]pyrazin-8-yl]amino]-2-methylbenzamide; hydrochloride], the IC90 stood at 210 nM. Still for that read-out and setting: with `CCc1cc(Nc2nccn3c(-c4ccc(OC)cc4)cnc23)ccc1C(=O)NCCOCCNCCO` [Example 89, 2-ethyl-N-[2-[2-(2-hydroxyethyl-amino)ethoxy]ethyl]-4-[[3-(4-methoxyphenyl)imidazo[1,2-a]pyrazin-8-yl]amino]benzamide] the figure was 220 nM. In the case of `Cc1cc(Nc2nccn3c(-c4ccc(OC(F)F)cc4)cnc23)ccc1C(=O)NCCOCCN` [Example 90, N-[2-(2-aminoethoxy)ethyl]-4-[[3-[4-(difluoro-methoxy)phenyl]imidazo[1,2-a]pyrazin-8-yl]amino]-2-methylbenzamide; hydrochloride], the IC90 was determined as 230 nM.

Still in this experiment, the particulars now being: Acinetobacter baumannii, ATCC17978, 16 h, read-out: ATCC 17978 IC90.
For `COc1ccc(-c2cnc3c(Nc4cc(C)c(C(=O)NCCOCCN)c(F)c4)nccn23)c(F)c1F` [Example 58, N-(2-(2-Aminoethoxy)ethyl)-4-((3-(2,3-difluoro-4-methoxyphenyl)imidazo[1,2-a]pyrazin-8-yl)amino)-2-fluoro-6-methylbenzamide formate], the IC90 worked out at 51 nM. As to `COc1ccc(-c2cnc3c(Nc4cc(F)c(C(=O)NCCOCCN)c(Cl)c4)nccn23)c(F)c1F` [Example 60, dihydrochloride], the IC90 was found to be 91 nM.

Regarding `CCc1cc(Nc2nccn3c(-c4ccc(OC)c(F)c4F)cnc23)ccc1C(=O)NCCOCCOCCN` [Example 65, N-(2-(2-(2-Aminoethoxy)ethoxy)ethyl)-4-((3-(2,3-difluoro-4-methoxyphenyl)imidazo[1,2-a]pyrazin-8-yl)amino)-2-ethylbenzamide dihydrochloride], the IC90 amounted to 72 nM. Take `CC#CCOc1ccc(-c2cnc3c(Nc4ccc(C(=O)NCCOCCN)c(C)c4)nccn23)cc1` [Example 67, N-[2-(2-aminoethoxy)ethyl]-4-[[3-(4-but-2-ynoxyphenyl)imidazo[1,2-a]pyrazin-8-yl]amino]-2-methyl-benzamide; 2,2,2-trifluoroacetic acid]: the IC90 was 230 nM. The same measure, in the same setting: for `Cc1cc(Nc2nccn3c(-c4ccc(OCC#N)c(F)c4)cnc23)ccc1C(=O)NCCOCCN` [Example 68, N-[2-(2-aminoethoxy)ethyl]-4-[[3-[4-(cyanomethoxy)-3-fluoro-phenyl]imidazo[1,2-a]pyrazin-8-yl]amino]-2-methyl-benzamide; formic acid] the value was 220 nM; for `CCc1cc(Nc2nccn3c(-c4ccc(OC)c(F)c4F)cnc23)ccc1C(=O)NCCOCCNCC(=O)O` [Example 70, 2-[2-[2-[[4-[[3-(2,3-difluoro-4-methoxy-phenyl)imidazo[1,2-a]pyrazin-8-yl]amino]-2-ethyl-benzoyl]amino]ethoxy]ethylamino]acetic acid; formic acid], 490 nM; for `CCc1cc(Nc2nccn3c(-c4ccc(OC)c(F)c4F)cnc23)ccc1C(=O)NCCOC(C)(C)CN` [Example 71, N-[2-(2-amino-1,1-dimethyl-ethoxy)ethyl]-4-[[3-(2,3-difluoro-4-methoxy-phenyl)imidazo[1,2-a]pyrazin-8-yl]amino]-2-ethyl-benzamide; formic acid], 28 nM.

In the case of `COc1ccc(-c2cnc3c(Nc4ccc(C(=O)NCCOCCN)c(CC(F)F)c4)nccn23)c(F)c1F` [Example 75, N-[2-(2-aminoethoxy)ethyl]-2-(2,2-difluoroethyl)-4-[[3-(2,3-difluoro-4-methoxy-phenyl)imidazo[1,2-a]pyrazin-8-yl]amino]benzamide; formic acid], the IC90 came to 160 nM.
